In patent publication US20250041311A1, “Compound For Treating or Preventing Vimentin-Mediated Diseases” (Aluda Pharmaceuticals, Inc., priority 2021, published 2025):
“Also recorded” adds a separate entry of the source.

Key:
[1] = test system: Huh7-NC12 cells; experiment: Exosome release from liver cancer cells (luciferase exosome reporter, ExoHTP platform); type: cell-based; settings: 48 h, luciferase activity of exosomes purified from supernatant
[2] = test system: Huh7-NC12 cells; experiment: PrestoBlue cell viability of liver cancer cells; settings: for cytotoxicity: 48 h, highest concentration 10,000 nM, high concentrations 3,160 and 10,000 nM; for toxicity to Huh7-NC12 cells: high concentrations (>3160 nM); for survival rate: after two days of treatment
[3] = target: T1, GFAP (Homo sapiens, UniProt P14136); experiment: Immunofluorescence microscopy of the GFAP network (specificity control); type: cell-based; settings: U87 glioma cells treated with C50
T1 construct: endogenous in cells; host or cells: U87 human glioma cells
T1 sequence (P14136 whole entry): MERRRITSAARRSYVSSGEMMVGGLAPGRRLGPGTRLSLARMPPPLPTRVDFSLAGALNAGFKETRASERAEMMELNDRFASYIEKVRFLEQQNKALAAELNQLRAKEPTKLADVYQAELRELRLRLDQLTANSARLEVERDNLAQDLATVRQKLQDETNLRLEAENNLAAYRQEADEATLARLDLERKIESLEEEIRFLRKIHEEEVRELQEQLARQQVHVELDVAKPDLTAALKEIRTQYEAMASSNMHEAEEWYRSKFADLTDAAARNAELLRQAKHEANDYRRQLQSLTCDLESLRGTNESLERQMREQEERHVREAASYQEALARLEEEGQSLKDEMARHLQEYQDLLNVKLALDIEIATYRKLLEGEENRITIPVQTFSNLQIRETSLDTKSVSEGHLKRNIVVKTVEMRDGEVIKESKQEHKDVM

[4] = target: T2, vimentin (Homo sapiens, UniProt P08670); experiment: Fluorescence recovery after photobleaching (FRAP) of GFP-vimentin in U87 cells; type: cell-based; parameters: expressed in transfected cells; host or cells: U87 human glioma cells, transient transfection; settings: cells treated with C50 for 24 h, vs DMSO
Method: (§1) Cell culture: Human cancer cell lines were obtained from the Institute of Cell Research, Chinese Academy of Sciences or ATCC. Cells were cultured in an incubator with 5% CO2 in RMPI1640 supplemented with 10% fetal bovine serum, 2 mM L-glutamine and 1× penicillin-streptomycin (100 IU/ml-100 μg/ml).
Fluorescence recovery after photobleaching (FRAP): Cells were cultured on 4-well coverslips and transiently transfected with pEGFP-Vim expression vector using Lipofectamine 2000 (Invitrogen) following the manufacturer's instructions. Twenty-four h after transfection, cells were treated with DMSO or C50 for 24 h. FRAP experiments were performed using a confocal microscope system (Fluoview 1,000; Olympus). For photobleaching, the region of interest (ROI) was irradiated with 60% laser power (488 nm) for 2 s. Images were taken every 30 s for 5 min to monitor fluorescence recovery. Fluorescence intensities were corrected for sample background at each time point. After data collection, the fluorescence intensity of ROI was extracted by ImageJ software.
Target sequence in this assay (P08670 whole entry, species assumed): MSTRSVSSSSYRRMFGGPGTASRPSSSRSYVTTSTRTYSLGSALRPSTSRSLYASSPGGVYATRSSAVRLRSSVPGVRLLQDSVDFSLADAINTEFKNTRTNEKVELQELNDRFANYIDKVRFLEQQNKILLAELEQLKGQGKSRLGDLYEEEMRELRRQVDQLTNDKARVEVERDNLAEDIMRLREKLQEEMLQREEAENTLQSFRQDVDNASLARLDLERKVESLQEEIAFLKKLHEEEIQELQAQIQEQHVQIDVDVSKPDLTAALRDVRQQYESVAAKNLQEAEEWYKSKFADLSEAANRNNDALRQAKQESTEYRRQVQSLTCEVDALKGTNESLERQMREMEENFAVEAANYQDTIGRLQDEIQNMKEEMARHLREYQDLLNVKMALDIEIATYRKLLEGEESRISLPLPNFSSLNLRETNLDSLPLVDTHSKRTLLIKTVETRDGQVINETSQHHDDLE

[5] = target: T2, vimentin; experiment: Immunofluorescence microscopy of the vimentin intermediate filament network; type: cell-based; parameters: react with mouse anti-VIM antibody (Sigma, 1:200) at room temperature; endogenous in cells; host or cells: U87 human glioma cells; settings: U87 cells treated with C50 for 24 h, confocal immunofluorescence
Method: as §1
Target sequence in this assay (P08670 2-466 limits assumed): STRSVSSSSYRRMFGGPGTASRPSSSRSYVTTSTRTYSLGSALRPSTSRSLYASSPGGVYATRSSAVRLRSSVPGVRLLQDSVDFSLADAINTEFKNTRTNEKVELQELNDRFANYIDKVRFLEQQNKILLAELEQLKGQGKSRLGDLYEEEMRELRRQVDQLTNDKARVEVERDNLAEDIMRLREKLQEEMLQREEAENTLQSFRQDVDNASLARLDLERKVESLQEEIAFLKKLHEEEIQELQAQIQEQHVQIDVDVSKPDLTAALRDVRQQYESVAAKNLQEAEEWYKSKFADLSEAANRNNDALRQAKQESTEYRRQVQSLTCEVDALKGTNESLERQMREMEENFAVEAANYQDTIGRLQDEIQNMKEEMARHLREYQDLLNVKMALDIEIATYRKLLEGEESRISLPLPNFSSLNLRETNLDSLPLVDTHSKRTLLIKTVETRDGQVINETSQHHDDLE
Immunofluorescence microscopy: Cells were cultured in 4-well coverslips, treated with DMSO or C50 for 24 h, fixed with 2% paraformaldehyde at 37° C. for 15 minutes, permeabilized in 0.2% Triton X-100 PBS at room temperature Wash for 15 min, wash 3 times with 0.05% Triton X-100 TBS, block with 10% normal goat serum in 0.05% Triton X-100 TBS, then react with mouse anti-VIM antibody (Sigma, 1:200) at room temperature Incubate for 3 h. Cells were washed 3 times with 0.05% Triton X-100 in PBS, and then incubated with Cy TM3-conjugated anti-mouse IgG antibody (Jackson, 1:300) for 1 h at room temperature. Nuclei were stained with DAPI for 5-10 min. Immunofluorescence was observed using a FV1000 (Olympus) confocal microscope.

[6] = test system: EAE mice; experiment: MOG-induced experimental autoimmune encephalomyelitis (EAE) mouse model; type: in vivo; settings: FTY720 1 mg/kg, oral once a day, vs vehicle

| Compound | inhibition of exosome release [1] | cytotoxicity [2] | toxicity to Huh7-NC12 cells [2] | survival rate [2] | other results |
| --- | --- | --- | --- | --- | --- |
| CN1CCN(C(=O)c2ccc(NC(=O)Nc3ccc(Nc4nc(/C=C/c5ccccc5)nc(N5CCOCC5)n4)cc3)cc2)CC1 [Compound C69B] | effectively inhibit the release of exosomes | cytotoxic | cytotoxic |  |  |
| O=C(Nc1ccc(Cl)cc1)Nc1ccc(Nc2nc(/C=C/c3ccccc3)nc(N3CCOCC3)n2)cc1 [Compound C50] |  |  |  |  | structural changes of GFAP intermediate filament protein [3]: no structural changes; time required to recover fluorescence in the photobleached region [4]: significantly delayed; reorganization of the vimentin network [5]: significant reorganization of the vimentin network |
| O=C(Nc1ccc(F)cc1)Nc1ccc(Nc2nc(/C=C/c3ccc(Cl)cc3)nc(N3CCOCC3)n2)cc1 [Compound C45] | stronger inhibitory effects than GW4869; also recorded: effectively inhibit the release of exosomes | not cytotoxic | not toxic | about 90% |  |
| O=C(Nc1ccc(Nc2nc(/C=C/c3ccccc3)nc(N3CCOCC3)n2)cc1)Nc1ccc(C(=O)O)cc1 [Compound C69A] | stronger inhibitory effects than GW4869; also recorded: effectively inhibit the release of exosomes | not cytotoxic | not toxic | about 90% |  |
| CCCCCCCCc1ccc(CCC(N)(CO)CO)cc1 [FTY720, reference compound] |  |  |  |  | animal weight loss [6]: reduced; clinical disease scores [6]: improved |
| O=C(Nc1ccc(Nc2nc(/C=C/c3ccccc3)nc(N3CCOCC3)n2)cc1)Nc1ccnc(Cl)c1 [Compound C52M] | effectively inhibit the release of exosomes | cytotoxic | cytotoxic |  |  |
| O=C(/C=C/c1ccc(/C=C/C(=O)Nc2ccc(C3=NCCN3)cc2)cc1)Nc1ccc(C2=NCCN2)cc1 [GW4869, reference compound] |  | not cytotoxic |  | about 90% |  |
